Data on twelve compounds can be found in BindingDB's records for doi:10.1016/j.bioorg.2016.07.006 (Dumlupinar University, 2016).

One experiment concerns the target Carbonic anhydrase 2 (Homo sapiens, UniProt P00918). The experiment in a line: In vitro Carbonic Anhydrase Inhibition Assay. As to the method: (§1) CA activity was measured according to the method described by Verpoorte et al. in inhibition studies, spectrophotometrically [Biochem., 242:4221-4229]. The reaction mixture contains 50 mM Tris-SO4 buffer (pH = 7.4), 3 mM 4-nitrophenylacetate and enzyme solution in 1 ml total volume. A reference measurement was done by using the same cuvette without enzyme solution. The measurement was repeated in triplicate at each concentration of 5-amino-1,3,4-thiadiazole-2-sulfonamide containing pyrazole derivatives.

A further experiment has as its target Carbonic anhydrase 1 (Homo sapiens, UniProt P00915). In words: In vitro Carbonic Anhydrase Inhibition Assay. How it is done:
as §1

Sequence of Carbonic anhydrase 1 (P00915 whole entry): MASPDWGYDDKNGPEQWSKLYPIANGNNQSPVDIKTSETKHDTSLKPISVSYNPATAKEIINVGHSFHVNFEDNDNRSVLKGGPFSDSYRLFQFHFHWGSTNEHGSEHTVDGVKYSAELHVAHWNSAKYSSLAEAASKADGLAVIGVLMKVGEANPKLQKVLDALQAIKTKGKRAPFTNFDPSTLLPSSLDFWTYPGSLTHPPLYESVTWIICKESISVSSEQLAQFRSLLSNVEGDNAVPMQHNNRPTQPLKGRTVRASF

For orientation: Ki means the equilibrium dissociation constant of an inhibitor or competing ligand from its target. A low value points to higher affinity. Regarding `NS(=O)(=O)c1nnc(NC(=O)c2nn(-c3cccc(NN=C(C(=O)c4ccccc4)C(=O)c4ccccc4)c3)c(-c3ccccc3)c2C(=O)Nc2nnc(S(N)(=O)=O)s2)s1` [1-(3-(2-(1,3-Dioxo-1,3-diphenylpropan-2-ylidene)hydrazinyl)phenyl)-5-phenyl-N3,N4-bis(5-sulfamoyl-1,3,4-thiadiazol-2-yl)-1Hpyrazole-3,4-dicarboxamide (8)], the Ki at Carbonic anhydrase 2 is 878 nM; on Carbonic anhydrase 1 it was 4000 nM.

Take `CC(=O)/C(=N/Nc1cccc(-n2nc(C(=O)Nc3nnc(S(N)(=O)=O)s3)c(C(=O)Nc3nnc(S(N)(=O)=O)s3)c2-c2ccccc2)c1)C(=O)c1ccccc1` [1-(3-(2-(1,3-Dioxo-1-phenylbutan-2-ylidene)hydrazinyl)phenyl)-5-phenyl-N3,N4-bis(5-sulfamoyl-1,3,4-thiadiazol-2-yl)-1H-pyrazole-3,4-dicarboxamide (6)]: the Ki at Carbonic anhydrase 2 and at Carbonic anhydrase 1 was 119 nM each time.

For the compound `CC(=O)C(=NNc1cccc(-n2nc(C(=O)Nc3nnc(S(N)(=O)=O)s3)c(C(=O)Nc3nnc(S(N)(=O)=O)s3)c2-c2ccccc2)c1)C(C)=O` [1-(3-(2-(2,4-Dioxopentan-3-ylidene)hydrazinyl)phenyl)-5-phenyl-N3,N4-bis(5-sulfamoyl-1,3,4-thiadiazol-2-yl)-1H-pyrazole-3,4-dicarboxamide (5)], the Ki on Carbonic anhydrase 2 is 494 nM; at Carbonic anhydrase 1 it was 767 nM.

For the compound `CC1(C)CC(=O)C(=NNc2cccc(-n3nc(C(=O)Nc4nnc(S(N)(=O)=O)s4)c(C(=O)Nc4nnc(S(N)(=O)=O)s4)c3-c3ccccc3)c2)C(=O)C1` [1-(3-((2-Hydroxy-4,4-dimethyl-6-oxocyclohex-1-en-1-yl)diazenyl)phenyl)-5-phenyl-N3,N4-bis(5-sulfamoyl-1,3,4-thiadiazol-2-yl)-1H-pyrazole-3,4-dicarboxamide (14)], the Ki was 288 nM at Carbonic anhydrase 2 and 787 nM at Carbonic anhydrase 1.

For the compound `NS(=O)(=O)c1nnc(NC(=O)c2nn(-c3cccc(NN=C4C(=O)CCCC4=O)c3)c(-c3ccccc3)c2C(=O)Nc2nnc(S(N)(=O)=O)s2)s1` [1-(3-((2-Hydroxy-6-oxocyclohex-1-en-1-yl)diazenyl)phenyl)-5-phenyl-N3,N4-bis(5-sulfamoyl-1,3,4-thiadiazol-2-yl)-1H-pyrazole-3,4-dicarboxamide (13)], the results for the Ki on Carbonic anhydrase 2 and on Carbonic anhydrase 1 were 157 nM and 508 nM, respectively.

For the compound `NS(=O)(=O)c1nnc(NC(=O)c2nn(-c3cccc(/N=N/c4c(O)ccc5ccccc45)c3)c(-c3ccccc3)c2C(=O)Nc2nnc(S(N)(=O)=O)s2)s1` [1-(3-((2-Hydroxynaphthalen-1-yl)diazenyl)phenyl)-5-phenyl-N3,N4-bis(5-sulfamoyl-1,3,4-thiadiazol-2-yl)-1H-pyrazole-3,4-dicarboxamide (4)], the Ki on Carbonic anhydrase 2 came out at 411 nM; on Carbonic anhydrase 1 it was 1660 nM.

For `CCOC(=O)C(=NNc1cccc(-n2nc(C(=O)Nc3nnc(S(N)(=O)=O)s3)c(C(=O)Nc3nnc(S(N)(=O)=O)s3)c2-c2ccccc2)c1)C(=O)OCC` [Diethyl 2-(2-(3-(5-phenyl-3,4-bis((5-sulfamoyl-1,3,4-thiadiazol-2-yl)carbamoyl)-1H-pyrazol-1-yl)phenyl)hydrazono)malonate (10)], the values for the Ki on Carbonic anhydrase 2 and at Carbonic anhydrase 1 were 203 nM and 461 nM, respectively.

Take `CCOC(=O)/C(=N\Nc1cccc(-n2nc(C(=O)Nc3nnc(S(N)(=O)=O)s3)c(C(=O)Nc3nnc(S(N)(=O)=O)s3)c2-c2ccccc2)c1)C(C)=O` [Ethyl 3-oxo-2-(2-(3-(5-phenyl-3,4-bis((5-sulfamoyl-1,3,4-thiadiazol-2-yl)carbamoyl)-1H-pyrazol-1-yl)phenyl)hydrazono)butanoate (7)]: the Ki on Carbonic anhydrase 2 was 208 nM; at Carbonic anhydrase 1 it was 710 nM.

For the compound `CCCC(=O)/C(=N/Nc1cccc(-n2nc(C(=O)Nc3nnc(S(N)(=O)=O)s3)c(C(=O)Nc3nnc(S(N)(=O)=O)s3)c2-c2ccccc2)c1)C(=O)OCC` [Ethyl 3-oxo-2-(2-(3-(5-phenyl-3,4-bis((5-sulfamoyl-1,3,4-thiadiazol-2-yl)carbamoyl)-1H-pyrazol-1-yl)phenyl)hydrazono)hexanoate (11)], the figures for the Ki at Carbonic anhydrase 2 and at Carbonic anhydrase 1 were 84 nM and 246 nM, respectively.

For `CCOC(=O)/C(=N\Nc1cccc(-n2nc(C(=O)Nc3nnc(S(N)(=O)=O)s3)c(C(=O)Nc3nnc(S(N)(=O)=O)s3)c2-c2ccccc2)c1)C(=O)c1ccccc1` [Ethyl 3-oxo-3-phenyl-2-(2-(3-(5-phenyl-3,4-bis((5-sulfamoyl-1,3,4-thiadiazol-2-yl)carbamoyl)-1H-pyrazol-1-yl)phenyl)hydrazono)propanoate (9)], the Ki on Carbonic anhydrase 2 came out at 435 nM; on Carbonic anhydrase 1, 487 nM.

`COC(=O)C(/N=N/c1cccc(-n2nc(C(=O)Nc3nnc(S(N)(=O)=O)s3)c(C(=O)Nc3nnc(S(N)(=O)=O)s3)c2-c2ccccc2)c1)S(=O)(=O)c1ccccc1` (centres undefined) [Methyl 2-((3-(5-phenyl-3,4-bis((5-sulfamoyl-1,3,4-thiadiazol-2-yl)carbamoyl)-1H-pyrazol-1-yl)phenyl)diazenyl)-2-(phenylsulfonyl)acetate (15)]: the Ki at Carbonic anhydrase 2 is 92 nM; on Carbonic anhydrase 1 it was 318 nM.

Consider `CC(=O)/C(=N/Nc1cccc(-n2nc(C(=O)Nc3nnc(S(N)(=O)=O)s3)c(C(=O)Nc3nnc(S(N)(=O)=O)s3)c2-c2ccccc2)c1)C(=O)OC(C)(C)C` [tert-Butyl 3-oxo-2-(2-(3-(5-phenyl-3,4-bis((5-sulfamoyl-1,3,4-thiadiazol-2-yl)carbamoyl)-1H-pyrazol-1-yl)phenyl)hydrazono)butanoate (12)], for which the values for the Ki at Carbonic anhydrase 2 and on Carbonic anhydrase 1 were 149 nM and 522 nM, respectively.
